Laboratory results from ChEMBL document CHEMBL3132769, “Fragment growing to retain or alter the selectivity of anchored kinase hinge-binding fragments” (Medchemcomm, 2014).

How the values were obtained:
[1] = target: T1, MAP kinase-activated protein kinase 5 (Homo sapiens) (UniProt Q8IW41); assay: Inhibition of human full length PRAK expressed in baculovirus assessed as substrate phosphorylation using fluorescence-labelled peptides as substrate at 0.2 uM after 90 mins by microfluidic peptide phosphorylation assay
T1 sequence (whole entry): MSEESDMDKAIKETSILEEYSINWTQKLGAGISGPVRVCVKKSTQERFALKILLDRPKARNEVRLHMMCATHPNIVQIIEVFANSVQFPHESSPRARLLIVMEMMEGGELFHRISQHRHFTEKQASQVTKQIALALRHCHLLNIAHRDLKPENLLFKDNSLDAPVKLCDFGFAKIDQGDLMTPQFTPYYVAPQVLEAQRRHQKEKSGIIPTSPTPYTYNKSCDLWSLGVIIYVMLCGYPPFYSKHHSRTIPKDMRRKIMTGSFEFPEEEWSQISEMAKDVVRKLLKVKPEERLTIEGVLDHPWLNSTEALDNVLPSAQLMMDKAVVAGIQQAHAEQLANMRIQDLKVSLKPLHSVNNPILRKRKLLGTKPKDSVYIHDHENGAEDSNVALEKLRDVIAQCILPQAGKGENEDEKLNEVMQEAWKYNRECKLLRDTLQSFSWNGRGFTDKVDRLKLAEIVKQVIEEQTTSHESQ

[2] = target: Insulin-like growth factor 1 receptor (Homo sapiens) (UniProt P08069); assay: Inhibition of human IGF1R catalytic domain expressed in baculovirus assessed as substrate phosphorylation using fluorescence-labelled peptides as substrate at 2 uM after 90 mins by microfluidic peptide phosphorylation assay
[3] = target: T2, Serine/threonine-protein kinase BRSK2 (Homo sapiens) (UniProt Q8IWQ3); assay: Inhibition of human truncated BRSK2 expressed in baculovirus assessed as substrate phosphorylation using fluorescence-labelled peptides as substrate at 0.1 uM after 90 mins by microfluidic peptide phosphorylation assay
T2 sequence (whole entry): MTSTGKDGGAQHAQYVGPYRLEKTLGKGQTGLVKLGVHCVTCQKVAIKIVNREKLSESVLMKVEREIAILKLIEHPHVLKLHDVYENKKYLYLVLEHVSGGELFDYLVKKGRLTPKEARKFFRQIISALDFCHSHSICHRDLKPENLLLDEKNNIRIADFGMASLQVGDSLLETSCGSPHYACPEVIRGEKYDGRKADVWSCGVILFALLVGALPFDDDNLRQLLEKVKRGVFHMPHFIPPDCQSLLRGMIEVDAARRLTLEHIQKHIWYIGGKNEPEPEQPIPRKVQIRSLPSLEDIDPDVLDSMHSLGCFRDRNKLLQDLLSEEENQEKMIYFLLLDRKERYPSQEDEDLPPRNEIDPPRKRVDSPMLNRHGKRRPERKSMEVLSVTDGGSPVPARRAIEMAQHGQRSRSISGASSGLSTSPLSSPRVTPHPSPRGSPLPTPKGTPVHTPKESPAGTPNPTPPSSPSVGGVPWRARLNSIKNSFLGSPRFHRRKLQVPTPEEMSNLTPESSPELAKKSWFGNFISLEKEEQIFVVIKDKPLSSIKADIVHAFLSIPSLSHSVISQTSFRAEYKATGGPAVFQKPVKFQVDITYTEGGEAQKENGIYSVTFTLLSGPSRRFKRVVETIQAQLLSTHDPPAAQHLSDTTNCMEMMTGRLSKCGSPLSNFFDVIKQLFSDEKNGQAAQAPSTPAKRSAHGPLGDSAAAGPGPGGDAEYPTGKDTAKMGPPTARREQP

[4] = target: Casein kinase I isoform delta (Homo sapiens) (UniProt P48730); assay: Inhibition of human CK1D catalytic domain expressed in Escherichia coli cell assessed as substrate phosphorylation using fluorescence-labelled peptides as substrate at 95 uM after 90 mins by microfluidic peptide phosphorylation assay
[5] = tested on: T3, Receptor-type tyrosine-protein kinase FLT3 (Homo sapiens), P36888 [D835Y]; assay: Inhibition of human FLT3 D835Y mutant catalytic domain expressed in baculovirus assessed as substrate phosphorylation using fluorescence-labelled peptides as substrate at 95 uM after 90 mins by microfluidic peptide phosphorylation assay
T3 sequence (whole entry): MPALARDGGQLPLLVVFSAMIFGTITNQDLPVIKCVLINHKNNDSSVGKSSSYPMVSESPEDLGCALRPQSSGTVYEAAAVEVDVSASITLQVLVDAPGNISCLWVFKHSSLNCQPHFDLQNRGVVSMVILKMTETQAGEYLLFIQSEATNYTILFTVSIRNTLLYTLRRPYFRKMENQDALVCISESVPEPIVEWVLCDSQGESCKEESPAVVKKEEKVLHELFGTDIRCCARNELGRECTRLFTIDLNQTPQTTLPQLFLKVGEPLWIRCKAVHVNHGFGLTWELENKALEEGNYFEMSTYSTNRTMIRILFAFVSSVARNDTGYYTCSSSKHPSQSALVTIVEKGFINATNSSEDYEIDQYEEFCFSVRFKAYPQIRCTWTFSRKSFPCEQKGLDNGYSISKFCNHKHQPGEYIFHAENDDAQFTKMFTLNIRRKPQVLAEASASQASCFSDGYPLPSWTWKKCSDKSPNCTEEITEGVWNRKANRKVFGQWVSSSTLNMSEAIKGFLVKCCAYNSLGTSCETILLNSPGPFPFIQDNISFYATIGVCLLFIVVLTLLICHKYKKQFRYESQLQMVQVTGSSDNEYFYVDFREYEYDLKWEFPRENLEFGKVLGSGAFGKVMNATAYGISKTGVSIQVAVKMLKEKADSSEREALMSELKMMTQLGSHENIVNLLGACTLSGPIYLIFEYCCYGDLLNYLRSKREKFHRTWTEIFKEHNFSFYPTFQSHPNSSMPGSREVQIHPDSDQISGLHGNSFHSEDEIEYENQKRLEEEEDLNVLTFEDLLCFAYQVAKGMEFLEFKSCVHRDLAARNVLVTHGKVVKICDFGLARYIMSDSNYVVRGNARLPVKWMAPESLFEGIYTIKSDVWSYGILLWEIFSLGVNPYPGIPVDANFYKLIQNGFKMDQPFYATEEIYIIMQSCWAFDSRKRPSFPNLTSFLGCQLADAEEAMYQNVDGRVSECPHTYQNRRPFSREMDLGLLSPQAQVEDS

[6] = target: Protein kinase C eta type (Homo sapiens) (UniProt P24723); assay: Inhibition of human truncated PKC eta expressed in baculovirus assessed as substrate phosphorylation using fluorescence-labelled peptides as substrate at 70 uM after 90 mins by microfluidic peptide phosphorylation assay
Protein kinase C eta type (Homo sapiens), sequence (P24723 whole entry, the tested form may be a part): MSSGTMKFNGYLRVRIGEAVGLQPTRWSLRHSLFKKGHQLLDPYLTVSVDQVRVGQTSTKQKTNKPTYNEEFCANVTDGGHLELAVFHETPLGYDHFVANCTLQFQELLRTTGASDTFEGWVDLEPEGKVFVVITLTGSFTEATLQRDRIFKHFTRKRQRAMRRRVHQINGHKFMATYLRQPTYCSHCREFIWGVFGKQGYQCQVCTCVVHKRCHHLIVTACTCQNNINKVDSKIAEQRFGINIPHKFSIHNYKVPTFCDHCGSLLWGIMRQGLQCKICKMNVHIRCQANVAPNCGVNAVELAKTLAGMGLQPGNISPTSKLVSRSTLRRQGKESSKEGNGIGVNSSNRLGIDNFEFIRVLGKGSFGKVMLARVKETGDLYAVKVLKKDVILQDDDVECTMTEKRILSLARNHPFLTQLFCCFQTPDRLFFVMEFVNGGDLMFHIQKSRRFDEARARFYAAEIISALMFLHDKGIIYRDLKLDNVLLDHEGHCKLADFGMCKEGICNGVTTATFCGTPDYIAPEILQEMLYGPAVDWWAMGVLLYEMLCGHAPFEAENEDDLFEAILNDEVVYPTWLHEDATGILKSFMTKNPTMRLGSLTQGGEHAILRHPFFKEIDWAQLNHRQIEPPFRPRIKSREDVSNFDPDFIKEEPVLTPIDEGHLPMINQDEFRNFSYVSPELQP

Casein kinase I isoform delta (Homo sapiens), sequence (P48730 whole entry, looked up, the tested form may be a part, canonical isoform): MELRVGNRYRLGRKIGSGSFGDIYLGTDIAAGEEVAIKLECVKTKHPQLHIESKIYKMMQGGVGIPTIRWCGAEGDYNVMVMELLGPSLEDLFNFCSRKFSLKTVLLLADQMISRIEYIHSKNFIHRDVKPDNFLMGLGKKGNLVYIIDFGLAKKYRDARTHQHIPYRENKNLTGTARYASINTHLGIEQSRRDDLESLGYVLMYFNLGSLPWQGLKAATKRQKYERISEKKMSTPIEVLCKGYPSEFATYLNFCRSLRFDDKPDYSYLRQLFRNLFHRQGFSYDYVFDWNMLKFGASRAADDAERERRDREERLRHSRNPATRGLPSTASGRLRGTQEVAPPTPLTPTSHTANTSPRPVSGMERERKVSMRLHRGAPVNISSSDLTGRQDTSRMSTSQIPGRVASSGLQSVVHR

## Clc1ccc(C2(c3ccc(-c4ncnc5[nH]cnc45)cc3)CCNCC2)cc1
[1]
  inhibition: 8.5%

## NC1CCN(c2ncnc3[nH]ccc23)CC1
[2]
  inhibition: 0%

## C[C@H](CN(C)C)Oc1nc(Nc2cc3cccc(Cl)c3cn2)cnc1C#N
[3]
  inhibition: 28.5%

## NCCc1ccc(-c2ncnc3[nH]cnc23)cc1
[4]
  inhibition: 77.5%
[5]
  inhibition: 86%

## CNCc1ccc(-c2ncnc3[nH]cnc23)cc1
[6]
  inhibition: 78.5%
